Data: US20240139162A1, “Benzophenanthridine Alkaloids and Their Methods of Use” (Chengdu Anticancer Bioscience, LTD., priority 2019, published 2024)
Entries after “also recorded” stand apart in the source; their conditions may differ. Read-outs that look alike come from different tables or passages of the source.

Assays:
[1] = test system: Rat1A cell lines (Rat1A C, Rat1A MYC, Rat1A E2F1, Rat1A E2F3); test: MTT assay, Rat1A cell lines expressing oncogenes; assay type: cell-based; conditions: Rat1A cell lines compared to Rat1A C (FIG. 12)
Experimental: (§1) Cells were split, plated in appropriate culture media and allowed to adhere. After 18 hours, corynoline and acetylcorynoline were added to a cell line selected from below. At 72 h or 96 h, MTT was added and at 75 h or 99 h, the A570 nm was recorded. The concentration ranged from 0.02 μM to 40 μM.
The following Rat1A cell lines were used in these studies: Rat1 A C, Rat1A MYC, Rat1A E2F1, and Rat1A E2F3. The cell line was then engineered as control (C), to overexpress the MYC oncogene (Rat1A-MYC), to overexpress the E2F1 oncogene (Rat1A-E2F1), or to overexpress the E2F3 oncogene (Rat1A-E2F3).

RPE MBC cells [2] = test: Mitotic kinetochore analysis with CREST antibody; assay type: cell-based, human
Experimental: Following treatment with acetylcorynoline, RPE MBC cells were prepared for immunofluorescence analysis with CREST serum (staining shown in FIG. 6 and FIG. 7 in red).

RPE-MBH cells = test: IC50 in RPE-MBH cells (Table 1); assay type: cell-based, human; conditions: Homo sapiens, 72 h, RPE-MBH, treatment 72 h; read-out: IC50
Experimental: as §1
(§2) The following RPE cell lines were used in these studies: RPE NEO, RPE MBH, RPE MBC, RPE MA, RPE MP, RPE MI, and RPE MYC Nick. This RPE series were derived from human retinal pigment epithelium and then stably transfected with an hTERT expression construct for immortalization. The resulting cell line was then engineered to overexpress the MYC oncogene (RPE-MYC) or a Neomycin selection marker gene (RPE-NEO). In RPE-MYC cells, a variety of other oncogenes such as Myr-AKT, BCL2, ID1 and PI3K^E45k were further introduced individually to generate the cell lines RPE MA, RPE MBC, RPE MI, RPE MP, respectively. As a control, H2BGFP was introduced into RPE-MYC cells to generate RPE MBH.
(§3) The effect of the compounds chelidonine and protopine on cell division was assessed similarly to corynoline and acetylcorynoline above. As described in Example 6 above, as cells enter and become arrested in mitosis, they detach from the plate surface and appear as rounded cells with a smooth surface membrane. RPE-MBC cells (ectopically expressing oncogenes MYC and Bcl2) were treated with DMSO, chelidonine and protopine, and compared against controls Michael's ketone (MK) and taxol.

RPE MBC cells [3] = test: Spindle pole assembly by β-tubulin / Histone H3ser10P immunofluorescence; assay type: cell-based, human
Experimental: Microtubule assembly, specifically spindle pole assembly, was altered by treatment with acetylcorynoline. RPE MBC cells were treated with acetylcorynoline and Histone H3 Serine 10 Phosphorylation (Histone H3ser10p, shown in FIG. 4 and FIG. 5 in red), β-tubulin (green) and DNA (blue) was analyzed by immunofluorescence microscopy. Histone H3ser10P was used to determine the cells that were in early mitosis (e.g., prometaphase or metaphase). β-tubulin was used to examine microtubule localization and spindle assembly within the cells.
Similarly to corynoline and acetylcorynoline above, it was determined that microtubule assembly, specifically spindle pole assembly, was altered by treatment with chelidonine.

[4] = test system: all tested cell lines (RPE, Rat1A and human cancer cell lines); test: MTT assay, IC50 across all of the cell lines tested; assay type: cell-based
RPE-MBC cells = test: IC50 in RPE-MBC cells (Table 1); assay type: cell-based, human; conditions: Homo sapiens; RPE-MBC, treatment 72 h; read-out: IC50
Experimental: Retinal pigment epithelial cells transformed by ectopic MYC and Bcl-2 expression (RPE-MBC cells) have been described previously (e.g., Goga et al., 2007, Nat. Med., 13 (7):820-827) and were cultured in DMEM supplemented with 5% fetal bovine serum in a humidified incubator that was maintained at 5% CO2. For screening for bioactive fractions, cells were cultured in 96-well plates, and exposed to crude extracts, partially purified fractions or pure compounds at the concentrations indicated in the figure legends. Exposure was for 24 or 48 hours before analysis of cells for either an arrest in mitosis using an inverted microscope or for a change in DNA content after 4′,6′-diamidino-2-phenylindole (DAPI) staining by fluorescence microscopy.
The RPE series were derived from human retinal pigment epithelium and then stably transfected with a hTERT expression construct for immortalization. The resulting cell line was then engineered to overexpress the MYC and BCL2 oncogenes, generating the RPE MBC cell line. This cell line mimics cancer cells that overexpress MYC and Bcl2, and readily forms viable polyploid cells when cytokinesis is prevented.
as §1, §3

3T3 MEF cells = test: IC50 in 3T3 MEF cells (Table 2); assay type: cell-based; conditions: Mus musculus, MEF, 72 h, 3T3 MEF, treatment 72 h; read-out: IC50
Experimental: as §1, §3

RPE-Neo cells = test: IC50 in RPE-Neo cells (Table 2); assay type: cell-based, human; conditions: Homo sapiens, 72 h, RPE-Neo, treatment 72 h; read-out: IC50
Experimental: as §1, §2, §3

[5] = test system: RPE cell lines (RPE NEO, RPE MBH, RPE MBC, RPE MA, RPE MP, RPE MI, RPE MYC Nick); test: MTT assay, RPE cell lines expressing oncogenes; assay type: cell-based, human; conditions: RPE cell lines compared with RPE NEO control (FIG. 11)
RPE-A19 cells = test: IC50 in RPE-A19 cells (Table 2); assay type: cell-based, human; conditions: Homo sapiens, 72 h, RPE-A19, treatment 72 h; read-out: IC50
Experimental: as §1, §3

cells = test: Progression through mitosis by time-lapse microscopy; assay type: cell-based
Excerpt: Time lapse microscopy was used to compare progression through mitosis for cells treated with acetylcorynoline and the DMSO control group, beginning at prophase.

human cancer cell lines = test: MTT assay, human cancer cell lines; assay type: cell-based; conditions: with the exception of T98G (FIG. 13)
Experimental: as §1, with “μM. Taxol was used as a positive control, which has a known IC50 value of less than 0.02 μM in all tested cell lines.” for “μM.”
The following human cancer cell lines, representing a breadth of cancer subtypes, were used in these studies: Hela, C32, NCI-H23, HCT116 p53-/-, HCT116 wild type, MDA-MB-175IV, MDA-MB-231, MDA-MB-435, MCF-7, A431, H460, TUWI, CaoV-3, T98G, and HTB135.

CC(=O)O[C@H]1Cc2cc3c(cc2[C@H]2N(C)Cc4c(ccc5c4OCO5)[C@@]12C)OCO3 [Acetylcorynoline, (5bR,6S,12bR)-5b,6,7,12b,13,14-Hexahydro-5b,13-dimethyl-[1,3]benzodioxolo[5,6-c]-1,3-dioxolo[4,5-i]phenanthridin-6-ol 6-acetate]
change of IC50 after overexpression of oncogenes [1]: all declined when compared to Rat1 A C
kinetochore arrangement (CREST staining) (RPE MBC cells [2]): kinetochore arrangement was disturbed
IC50 (RPE-MBH cells): 12.6 µM
cells in prometaphase (Histone H3ser10P staining) (RPE MBC cells [3]; 6 hours of treatment): Numerous mitotic cells accumulated in prometaphase; also recorded: high numbers of cells arresting in prometaphase
spindle formation (β-tubulin staining) (RPE MBC cells [3]; 6 hours of treatment): monopolar spindles were formed; also recorded: abnormal spindle polarization in mitosis
spindle formation (β-tubulin staining) (RPE MBC cells [3]; 24 hours of treatment): multipolar spindles were formed; also recorded: multipolar spindle formation in mitosis
IC50 ([4]; Homo sapiens, across all of the cell lines tested (FIG. 9), MTT at 72 h or 96 h, read-out: IC50): 1 to 31 µM
IC50 ([4]; oncogene-expressing RPE cell lines and human cell lines (FIG. 2, FIG. 3), read-out: IC50, majority of values): 1 to 31 µM
IC50 (RPE-MBC cells): 9.94 µM
IC50 (3T3 MEF cells): 23 µM
IC50 (RPE-Neo cells): > 40 µM
change of IC50 after overexpression of oncogenic factors [5]: all declined compared with the RPE NEO control, with the exception of the RPE MA cell line
IC50 (RPE-A19 cells): 35.2 µM
cytofission (cells; time lapse): prevented cytofission
initiation of cytokinesis (cells; time lapse): does not affect the initiation of cytokinesis
time spent in early mitosis compared to a control cell (cells; time lapse beginning at prophase): three-times longer
IC50 compared with the other compound (human cancer cell lines): higher than those for corynoline
